Experimental findings from US10464896B2, “Efflux-pump inhibitors and therapeutic uses thereof” (Basilea Pharmaceutica International AG, priority 2015, dated 2019) are described below.

For one experiment, the system named is E. coli ATCC25922. Kind of experiment: Antibacterial activity in combination with minocycline (growth inhibition). It is filed as cell-based. The following applies: Escherichia coli, ATCC25922, compound at 25 μM; minocycline 0.25 μg/mL; OD625 23 h minus 1 h; read-out: residual growth of E. coli ATCC25922 (% of uninhibited control) with minocycline. The method, boiled down: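 Test compound combined with fixed subinhibitory partner antibiotic: linezolid 128 μg/mL for either strain, minocycline 0.25 μg/mL (E. coli) or 8 μg/mL (P. aeruginosa), in caMHB shaken at 37 °C. Residual growth as % of inhibitor-free control, from OD625 at 23 h minus 1 h.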
For the molecule `CC(C)(C)c1ccc(S(=O)(=O)NCc2cc(CNCC3CCNC3)cc(OCCc3c[nH]cn3)c2)cc1` (stereo not drawn) [Example 377], the activity at 25 µM was ≤ 10%. Still for that read-out and setting: as for `C=CCOc1cc(CNCC2CCNC2)cc(C(=O)NCc2ccc(Cl)cc2Br)c1` (stereo not drawn) [Example 380], the figure is ≤ 10%; as for `O=c1[nH]nc(COc2cc(/C=C/c3ccc(Cl)cc3Br)cc(CNCC3CCNC3)c2)o1` (stereo not drawn) [Example 381], ≤ 10%; as for `CC(C)COc1cc(C[N+](C)(C)CC2CNC2)cc(OCc2ccc(Cl)cc2Br)c1` [Example 382], ≤ 10%. Still for that read-out and setting: as for `C=CCOc1cc(C[N+](C)(C)CC2CCNC2)cc(OCc2ccc(Cl)cc2Br)c1` (stereo not drawn) [Example 388], the figure is ≤ 10%; as for `NC(=O)CCOc1cc(/C=C/c2ccc(Cl)cc2Br)cc(CNCC2CCNC2)c1` (stereo not drawn) [Example 390], ≤ 10%. Still for that read-out and setting: as for `C=CCOc1cc(CNCC2CNC2)cc(C(=O)Nc2nc(C(C)(C)C)cs2)c1` [Example 392], the figure is ≤ 10%; as for `C=CCOc1cc(CNCC2CNC2)cc(C(=O)Nc2ccc(Cl)cc2Br)c1` [Example 394, 3-allyloxy-5-[(azetidin-3-ylmethylamino)methyl]-N-(2-bromo-4-chloro-phenyl)benzamide], ≤ 10%; as for `C=CCOc1cc(C[N+](C)(C)CC2CNC2)cc(OCc2ccc(Cl)cc2Br)c1` [Example 395], ≤ 10%. In the case of `C=CCOc1cc(/C=C/c2ccc(Cl)cc2Br)cc(C[N+](C)(C)CC2CCNC2)c1` (stereo not drawn) [Example 396], the activity at 25 µM is ≤ 10%. With `CC(C)COc1ccc(/C=C/c2ccc(Br)cc2Cl)cc1CNCC1CCNC1` (stereo not drawn) [Example 397], the activity at 25 µM is ≤ 10%. The same measure, in the same setting: to `C[N+](C)(Cc1cc(/C=C/c2ccc(Cl)cc2Br)cc(OCCc2c[nH]cn2)c1)CC1CCNC1` (stereo not drawn) [Example 398] belongs ≤ 10%; to `CC(C)(C)c1ccc(S(=O)(=O)Nc2ccc(CNCC3CCNC3)cc2OCCc2c[nH]cn2)cc1` (stereo not drawn) [Example 399, 4-tert-butyl-N-[2-[2-(1H-imidazol-4-yl)ethoxy]-4-[(pyrrolidin-3-ylmethylamino)methyl]phenyl]benzenesulfonamide], ≤ 10%; to `CC(C)COc1ccc(/C=C/c2ccc(Br)cc2Cl)cc1CNCC1CNC1` [Example 401], ≤ 10%.

For `C=CCOc1cc(/C=C/c2ccc(Cl)cc2Br)cc(C[N+](C)(C)CC2CNC2)c1` [Example 402], the activity at 25 µM was ≤ 10%. On the same count and under the same terms, to `C=CCOc1ccc(OCc2ccc(Br)cc2Cl)cc1CNCC1CCNC1` (stereo not drawn) [Example 405] belongs ≤ 10%; to `C=CCOc1ccc(OCc2ccc(Br)cc2Cl)cc1CNCC1CNC1` [Example 406], ≤ 10%; to `C=CCOc1ccc(/C=C/c2ccc(Br)cc2Cl)cc1CNCC1CCNC1` (stereo not drawn) [Example 407], ≤ 10%.

For the molecule `C[N+](C)(Cc1cc(/C=C/c2ccc(Cl)cc2Br)cc(OCCc2c[nH]cn2)c1)CC1CNC1` [Example 408], the activity at 25 µM is ≤ 10%. On to `C=CCOc1ccc(OCc2ccc(Cl)cc2Br)cc1CNCC1CCNC1` (stereo not drawn) [Example 412], for which the activity at 25 µM is ≤ 10%. Take `C=CCOc1ccc(OCc2ccc(Cl)cc2Br)cc1CNCC1CNC1` [Example 413]: the activity at 25 µM is ≤ 10%. The same measure, in the same setting: as for `CC(C)COc1ccc(OCc2ccc(Cl)cc2Br)cc1CNCC1CCNC1` (stereo not drawn) [Example 416], the figure is ≤ 10%; as for `C=CCOc1ccc(/C=C/c2ccc(Cl)cc2Br)cc1CNCC1CCNC1` (stereo not drawn) [Example 419], ≤ 10%; as for `C=CCOc1ccc(/C=C/c2ccc(Cl)cc2Br)cc1CNCC1CNC1` [Example 421], ≤ 10%. On to `CC(C)COc1ccc(OCc2ccc(Cl)cc2Br)cc1CNCC1CNC1` [Example 422], for which the activity at 25 µM was ≤ 10%. As for `O=c1[nH]nc(CCOc2cc(/C=C/c3ccc(Cl)cc3Br)cc(CNCC3CCNC3)c2)o1` (stereo not drawn) [Example 429], the activity at 25 µM was ≤ 10%.

On to `Cc1noc(C)c1CCOc1cc(/C=C/c2ccc(Cl)cc2Br)cc(CNCC2CCNC2)c1` (stereo not drawn) [Example 430], for which the activity at 25 µM was ≤ 10%. Still for that read-out and setting: to `CC(C)COc1ccc(/C=C/c2ccc(Cl)cc2Br)cc1CNCC1CCNC1` (stereo not drawn) [Example 431] belongs ≤ 10%. The same measure, in the same setting: as for `Cc1n[nH]c(C)c1CCOc1cc(/C=C/c2ccc(Cl)cc2Br)cc(CNCC2CCNC2)c1` (stereo not drawn) [Example 433], the figure is ≤ 10%. As to `C=CCOc1cc(/C=C/c2ccc(Cl)cc2Br)cc(CNCC(=O)NCC2CNC2)c1` [Example 443], the activity at 25 µM was ≤ 10%. Still for that read-out and setting: to `C=CCOc1cc(/C=C/c2ccc(Cl)cc2Br)cc(C[N+](C)(C)CC(=O)NCC2CNC2)c1` [Example 444] belongs ≤ 10%; to `N#Cc1cncc(/C=C/c2cc(OCc3ccccc3)cc(CNCC3CCNC3)n2)c1` (stereo not drawn) [Example 446], ≤ 10%. On to `C=CCOc1cc(/C=C/c2ccc(Cl)cc2Br)cc(CN(CC2CNC2)CC2CNC2)c1` [Example 448], for which the activity at 25 µM was ≤ 10%. On the same count and under the same terms, to `C=CCOc1cc(/C=C/c2ccc(Cl)cc2Br)cc(CNCCNC(=O)C2CNC2)c1` [Example 450] belongs ≤ 10%; to `C=CCOc1cc(/C=C/c2ccc(Cl)cc2Br)cc(C(=O)NCCNCC2CNC2)c1` [Example 451], ≤ 10%; to `C=CCOc1cc(/C=C/c2ccc(Cl)cc2Br)cc(CNC(=O)C[N+](C)(C)CC2CNC2)c1` [Example 452], ≤ 10%. Take `C=CCOc1cc(/C=C/c2ccc(Cl)cc2Br)cc(CNCCNCC2CNC2)c1` [Example 453]: the activity at 25 µM is ≤ 10%. For the molecule `C=CCOc1cc(/C=C/c2ccc(Cl)cc2Br)cc(CNCCN(CC2CNC2)CC2CNC2)c1` [Example 455], the activity at 25 µM is ≤ 10%. On the same count and under the same terms, as for `C=CCOc1cc(/C=C/c2ccc(Cl)cc2Br)cc(C(=O)N(CC2CNC2)CC2CNC2)c1` [Example 456], the figure is ≤ 10%; as for `C=CCOc1cc(/C=C/c2cncc(C(=O)OC)c2)cc(CNCC2CCNC2)c1` (stereo not drawn) [Example 457], ≤ 10%.

`CC(C)COc1cc(/C=C/c2cccnc2)cc(C[N+](C)(C)CC2CCNC2)c1` (stereo not drawn) [Example 459]: the activity at 25 µM is ≤ 10%. Same read-out and setting: to `CC(C)COc1cc(/C=C/c2cncc(C#N)c2)cc(C[N+](C)(C)CC2CCNC2)c1` (stereo not drawn) [Example 460] belongs ≤ 10%. The same measure, in the same setting: as for `Clc1ccc(COc2ccc(OCCc3c[nH]cn3)c(CNCC3CCNC3)c2)c(Br)c1` (stereo not drawn) [Example 463], the figure is ≤ 10%. On the same count and under the same terms, as for `Clc1ccc(/C=C/c2ccc(OCCc3c[nH]cn3)c(CNCC3CCNC3)c2)c(Br)c1` (stereo not drawn) [Example 464], the figure is ≤ 10%; as for `Clc1ccc(COc2ccc(OCCc3c[nH]cn3)c(CNCC3CNC3)c2)c(Br)c1` [Example 465], ≤ 10%. Take `Clc1ccc(/C=C/c2ccc(OCCc3c[nH]cn3)c(CNCC3CNC3)c2)c(Br)c1` [Example 471]: the activity at 25 µM was ≤ 10%. Still for that read-out and setting: as for `Clc1ccc(/C=C/c2cc(OCCCNCC3CNC3)cc(OCCc3ccncc3)c2)c(Br)c1` [Example 509], the figure is ≤ 10%; as for `Cc1cc(COc2ccc(OCCCNCC3CNC3)c(/C=C/c3ccc(Cl)cc3Br)c2)no1` [Example 512], ≤ 10%. On the same count and under the same terms, as for `CC(C)COc1ccc(/C=C/c2ccc(Cl)cc2Br)cc1OCCCNCC1CNC1` [Example 513], the figure is ≤ 10%; as for `O=C(NCCNC(=O)C1CNC1)c1cc(/C=C/c2ccc(Cl)cc2Br)cc(OCCc2ccncc2)c1` [Example 515], ≤ 10%. Still for that read-out and setting: to `Clc1ccc(/C=C/c2cc(OCCCCNCC3CNC3)cc(OCCc3ccncc3)c2)c(Br)c1` [Example 517] belongs ≤ 10%; to `O=C(NCCNCC1CNC1)c1cc(/C=C/c2ccc(Cl)cc2Br)cc(OCCc2ccncc2)c1` [Example 518], ≤ 10%.

Regarding `Clc1ccc(/C=C/c2cc(OCc3ccncc3)ccc2OCCCNCC2CNC2)c(Br)c1` [Example 519], the activity at 25 µM was ≤ 10%. Regarding `Cc1cc(COc2ccc(/C=C/c3ccc(Cl)cc3Br)cc2CNC(=O)C2CCNC2)no1` (stereo not drawn) [Example 523], the activity at 25 µM is ≤ 10%. The same measure, in the same setting: to `Clc1ccc(/C=C/c2cc(OCCc3ccncc3)ccc2OCCCNCC2CNC2)c(Br)c1` [Example 525] belongs ≤ 10%.

Staying with this experiment, now noted: Escherichia coli, ATCC25922, compound at 50 μM; minocycline 0.25 μg/mL; OD625 23 h minus 1 h; read-out: residual growth of E. coli ATCC25922 (% of uninhibited control) with minocycline.
Regarding `O=C(NCc1cc(CNCC2CCNC2)cc(OCCc2c[nH]cn2)c1)c1nc(C2CC2)cs1` (stereo not drawn) [Example 391], the activity at 50 µM is ≤ 50%. Still for that read-out and setting: to `O=C(NCc1cc(CNCC2CCNC2)cc(OCCc2c[nH]cn2)c1)c1ccc(Cl)cc1Br` (stereo not drawn) [Example 393] belongs ≤ 50%.

With `C=CCOc1cc(CNCC2CNC2)cc(OCCc2ccccn2)c1` [Example 409], the activity at 50 µM is ≤ 50%.

Turning to `C=CCOc1cc(CNCC2CCNC2)cc(OCCc2ccccn2)c1` (stereo not drawn) [Example 410], the activity at 50 µM was ≤ 50%.

On to `C=CCOc1cc(CNCC2CNC2)cc(OCCc2cccnc2)c1` [Example 414], for which the activity at 50 µM is ≤ 50%.

As to `C=CCOc1cc(CNCC2CCNC2)cc(OCc2cccnc2)c1` (stereo not drawn) [Example 417], the activity at 50 µM is ≤ 50%. Same read-out and setting: as for `C=CCOc1cc(CNCC2CCNC2)cc(OCCc2cccnc2)c1` (stereo not drawn) [Example 418], the figure is ≤ 50%; as for `C=CCOc1cc(CNCC2CNC2)cc(OCCc2ccncc2)c1` [Example 423], ≤ 50%. On to `C(=C\c1cc(CNCC2CNC2)cc(OCCc2ccncc2)c1)/c1cccnc1` [Example 438], for which the activity at 50 µM is ≤ 50%. The same measure, in the same setting: to `CC(C)COc1cc(CNCC2CCNC2)cc(NC(=O)c2cccnc2)c1` (stereo not drawn) [Example 485, N-[3-isobutoxy-5-[(pyrrolidin-3-ylmethylamino)methyl]phenyl]pyridine-3-carboxamide] belongs ≤ 50%; to `C=CCOc1cc(/C=C/c2cncc(O)c2)cc(CNCC2CCNC2)c1` (stereo not drawn) [Example 499], ≤ 50%.
